The target of one experiment is T1, NaV1.7 (Homo sapiens, UniProt Q15858).
T1 construct: expression vector containing the full-length cDNA coding for the desired human sodium channel α-subunit; expressed in transfected cells; host or cells: HEK-293
The experiment is described as follows: Patch voltage clamp electrophysiology assay (EP), NaV1.7 in HEK-293 cells. The format is cell-based. Particulars: HEK-293, β1 coexpressed, held at -60 mV (inactivated state). A digest of the protocol: (§1)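 Whole-cell patch clamp at ambient temperature on HEK-293 cells stably expressing human NaV1.5 or NaV1.7 with β1 subunit; CsF internal pH 7.2, NaCl external pH 7.4. Held at −60 mV (full inactivation), 20 ms step to −150 mV, then test pulse; percent current decrease after compound wash-on taken as block.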

The target in another experiment is T2, hNav1.7 (Homo sapiens, UniProt Q15858).
T2 construct: expressed in transfected cells
T2 sequence (Q15858 1-1977 isoform Q15858-3): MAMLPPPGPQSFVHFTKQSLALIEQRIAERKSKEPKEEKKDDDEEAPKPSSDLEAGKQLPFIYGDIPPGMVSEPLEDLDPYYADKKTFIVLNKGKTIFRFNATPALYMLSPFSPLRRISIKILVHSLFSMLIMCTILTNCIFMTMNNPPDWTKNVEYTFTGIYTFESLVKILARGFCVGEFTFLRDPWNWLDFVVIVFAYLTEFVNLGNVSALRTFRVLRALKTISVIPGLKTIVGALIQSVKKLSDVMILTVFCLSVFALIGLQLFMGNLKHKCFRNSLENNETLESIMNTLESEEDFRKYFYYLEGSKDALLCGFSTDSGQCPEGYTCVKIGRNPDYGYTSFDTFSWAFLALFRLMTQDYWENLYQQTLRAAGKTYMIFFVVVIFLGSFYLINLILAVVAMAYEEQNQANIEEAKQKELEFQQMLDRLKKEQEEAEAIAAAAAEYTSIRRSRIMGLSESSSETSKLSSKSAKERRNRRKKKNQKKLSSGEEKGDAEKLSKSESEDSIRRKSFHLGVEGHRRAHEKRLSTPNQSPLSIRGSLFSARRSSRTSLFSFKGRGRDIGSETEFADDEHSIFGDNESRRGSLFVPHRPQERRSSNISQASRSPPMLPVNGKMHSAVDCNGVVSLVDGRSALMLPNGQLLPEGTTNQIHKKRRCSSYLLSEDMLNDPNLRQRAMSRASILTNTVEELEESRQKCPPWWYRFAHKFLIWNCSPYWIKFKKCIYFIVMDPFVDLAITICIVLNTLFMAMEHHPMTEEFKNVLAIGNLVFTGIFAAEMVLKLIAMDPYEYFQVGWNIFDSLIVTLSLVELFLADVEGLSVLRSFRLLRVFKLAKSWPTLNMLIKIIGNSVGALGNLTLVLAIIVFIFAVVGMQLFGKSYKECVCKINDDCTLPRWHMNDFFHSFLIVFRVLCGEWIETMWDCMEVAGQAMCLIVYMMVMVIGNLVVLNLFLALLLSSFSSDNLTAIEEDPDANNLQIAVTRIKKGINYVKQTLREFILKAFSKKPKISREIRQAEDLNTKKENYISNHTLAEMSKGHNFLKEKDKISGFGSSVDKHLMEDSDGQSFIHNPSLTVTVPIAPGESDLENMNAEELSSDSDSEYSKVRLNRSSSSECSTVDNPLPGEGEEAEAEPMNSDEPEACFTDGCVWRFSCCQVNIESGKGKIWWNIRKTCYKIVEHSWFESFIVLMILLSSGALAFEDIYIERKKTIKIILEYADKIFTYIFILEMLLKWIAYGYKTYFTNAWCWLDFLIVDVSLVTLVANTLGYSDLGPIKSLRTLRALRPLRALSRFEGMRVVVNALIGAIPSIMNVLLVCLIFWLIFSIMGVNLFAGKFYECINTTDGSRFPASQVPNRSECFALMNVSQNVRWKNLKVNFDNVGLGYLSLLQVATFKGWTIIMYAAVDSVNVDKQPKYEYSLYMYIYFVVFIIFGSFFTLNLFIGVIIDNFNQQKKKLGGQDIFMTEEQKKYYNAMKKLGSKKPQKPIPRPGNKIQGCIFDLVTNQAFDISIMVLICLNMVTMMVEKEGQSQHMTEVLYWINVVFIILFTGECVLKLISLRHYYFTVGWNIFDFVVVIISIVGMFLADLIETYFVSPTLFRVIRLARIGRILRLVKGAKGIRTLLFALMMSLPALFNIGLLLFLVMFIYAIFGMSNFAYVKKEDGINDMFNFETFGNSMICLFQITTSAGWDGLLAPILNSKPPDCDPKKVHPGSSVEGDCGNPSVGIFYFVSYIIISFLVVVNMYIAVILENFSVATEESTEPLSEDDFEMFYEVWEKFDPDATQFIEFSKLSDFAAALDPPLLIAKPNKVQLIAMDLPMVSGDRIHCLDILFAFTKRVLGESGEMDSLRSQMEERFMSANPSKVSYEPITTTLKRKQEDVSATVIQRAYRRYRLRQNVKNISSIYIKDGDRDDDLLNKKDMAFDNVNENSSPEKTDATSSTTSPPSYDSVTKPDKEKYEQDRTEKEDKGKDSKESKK
T2 sequence (Q07699 19-218 partner): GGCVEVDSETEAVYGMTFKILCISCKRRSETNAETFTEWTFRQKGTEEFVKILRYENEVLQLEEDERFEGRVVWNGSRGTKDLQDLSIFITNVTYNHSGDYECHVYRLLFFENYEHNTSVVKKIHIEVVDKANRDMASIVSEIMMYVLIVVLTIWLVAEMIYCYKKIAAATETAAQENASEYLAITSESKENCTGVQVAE
The experiment is described as follows: Tritiated sulfonamide competitive binding to membranes from cells expressing hNav1.7 and the β1 subunit (LBA). Conditions: competition with 100 pM [3H]compound, 18 h, room temperature; read-out: Nav1.7 (LBA). The procedure, abridged:
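Membranes from cells co-expressing hNav1.7 and β1 incubated 18 h at room temperature with 100 pM tritiated sulfonamide and test compound in 100 mM NaCl/20 mM Tris pH 7.4. Non-specific binding defined by 1 μM unlabelled compound; filter-bound radioactivity counted, IC50 from 4-parameter logistic fit.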

The next experiment deals with T3, NaV1.5 (Homo sapiens, UniProt Q14524).
T3 construct: expression vector containing the full-length cDNA coding for the desired human sodium channel α-subunit; expressed in transfected cells; host or cells: HEK-293
T3 sequence (Q14524 whole entry): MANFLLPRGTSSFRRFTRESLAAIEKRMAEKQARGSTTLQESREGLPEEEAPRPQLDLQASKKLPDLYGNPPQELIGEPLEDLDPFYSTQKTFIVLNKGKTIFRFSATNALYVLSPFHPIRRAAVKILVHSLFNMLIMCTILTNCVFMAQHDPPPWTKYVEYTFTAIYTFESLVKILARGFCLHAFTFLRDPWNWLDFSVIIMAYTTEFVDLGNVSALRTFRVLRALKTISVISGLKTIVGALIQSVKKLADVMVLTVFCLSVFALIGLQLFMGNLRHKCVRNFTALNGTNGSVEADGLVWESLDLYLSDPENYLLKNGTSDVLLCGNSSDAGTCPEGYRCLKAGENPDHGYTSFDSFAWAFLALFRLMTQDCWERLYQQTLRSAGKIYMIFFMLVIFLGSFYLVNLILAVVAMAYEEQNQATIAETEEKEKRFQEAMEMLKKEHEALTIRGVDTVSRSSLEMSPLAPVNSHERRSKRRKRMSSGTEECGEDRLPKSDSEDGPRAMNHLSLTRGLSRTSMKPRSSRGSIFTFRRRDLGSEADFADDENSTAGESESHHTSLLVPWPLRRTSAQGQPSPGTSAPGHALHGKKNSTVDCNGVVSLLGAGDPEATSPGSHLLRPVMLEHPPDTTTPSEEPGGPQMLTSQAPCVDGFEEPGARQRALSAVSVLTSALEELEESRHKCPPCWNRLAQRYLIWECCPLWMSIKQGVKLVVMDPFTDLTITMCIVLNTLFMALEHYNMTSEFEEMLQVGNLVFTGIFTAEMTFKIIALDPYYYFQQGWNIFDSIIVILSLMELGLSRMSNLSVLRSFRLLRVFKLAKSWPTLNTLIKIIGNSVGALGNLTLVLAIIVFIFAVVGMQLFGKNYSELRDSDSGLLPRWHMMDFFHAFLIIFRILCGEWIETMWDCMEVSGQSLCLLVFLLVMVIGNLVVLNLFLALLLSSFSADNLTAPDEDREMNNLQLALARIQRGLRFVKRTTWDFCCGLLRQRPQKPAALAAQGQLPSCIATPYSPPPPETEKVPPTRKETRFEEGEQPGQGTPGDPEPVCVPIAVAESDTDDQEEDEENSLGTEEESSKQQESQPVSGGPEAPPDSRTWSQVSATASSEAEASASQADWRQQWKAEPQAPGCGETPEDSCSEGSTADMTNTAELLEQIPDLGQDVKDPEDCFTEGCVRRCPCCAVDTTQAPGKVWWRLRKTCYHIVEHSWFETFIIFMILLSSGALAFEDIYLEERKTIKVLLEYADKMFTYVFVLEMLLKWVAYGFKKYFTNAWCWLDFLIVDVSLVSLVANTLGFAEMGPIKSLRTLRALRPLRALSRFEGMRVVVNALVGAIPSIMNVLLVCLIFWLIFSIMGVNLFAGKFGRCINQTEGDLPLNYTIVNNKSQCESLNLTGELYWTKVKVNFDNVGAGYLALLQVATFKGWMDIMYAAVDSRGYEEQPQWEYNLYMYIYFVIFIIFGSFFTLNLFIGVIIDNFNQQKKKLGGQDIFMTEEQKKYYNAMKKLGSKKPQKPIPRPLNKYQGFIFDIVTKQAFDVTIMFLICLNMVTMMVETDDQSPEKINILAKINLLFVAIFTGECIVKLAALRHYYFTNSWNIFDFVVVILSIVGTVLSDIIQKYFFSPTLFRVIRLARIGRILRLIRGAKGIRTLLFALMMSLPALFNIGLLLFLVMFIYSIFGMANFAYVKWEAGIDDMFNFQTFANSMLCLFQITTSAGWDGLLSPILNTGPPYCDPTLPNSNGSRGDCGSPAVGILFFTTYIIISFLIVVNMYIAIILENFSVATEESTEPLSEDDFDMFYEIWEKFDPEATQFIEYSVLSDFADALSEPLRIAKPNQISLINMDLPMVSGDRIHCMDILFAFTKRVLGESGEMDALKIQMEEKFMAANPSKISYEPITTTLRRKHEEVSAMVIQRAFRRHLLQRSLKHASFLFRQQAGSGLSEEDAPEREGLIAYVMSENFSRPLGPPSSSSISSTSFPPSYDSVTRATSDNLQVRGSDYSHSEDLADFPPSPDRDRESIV
The experiment is described as follows: Patch voltage clamp electrophysiology assay (EP), NaV1.5 in HEK-293 cells. The format is cell-based. Particulars: HEK-293, β1 coexpressed, held at -60 mV (inactivated state). A digest of the protocol: as §1

Where a name gives a salt, the structure may show the parent alone.

T1 sequence (Q15858 1-1977 isoform Q15858-3): as the sequence (Q15858 1-1977 isoform Q15858-3) above
T1 sequence (Q07699 19-218 partner): as the sequence (Q07699 19-218 partner) above

For the compound `Cc1nn([C@@H]2CCN(Cc3ccc(Cl)cc3C(F)(F)F)C2)c2cc(F)c(C(=O)NS(=O)(=O)C3CC3)cc12` [Example 20, (R)-1-(1-(4-chloro-2-(trifluoromethyl)benzyl)pyrrolidin-3-yl)-N-(cyclopropylsulfonyl)-6-fluoro-3-methyl-1H-indazole-5-carboxamide, trifluoroacetic acid salt], the IC50 on NaV1.7 was determined as 62 nM; on hNav1.7, 10 nM; on NaV1.5, 580 nM.
Regarding `Cc1nn(C2CN(Cc3cc(Cl)cc(OC(F)(F)F)c3)C2)c2cc(F)c(C(=O)NS(=O)(=O)C3CC3)cc12` [Example 15, 1-(1-(3-chloro-5-(trifluoromethoxy)benzyl)azetidin-3-yl)-N-(cyclopropylsulfonyl)-6-fluoro-3-methyl-1H-indazole-5-carboxamide], the IC50 on NaV1.7 was determined as 88 nM; on hNav1.7 it was 11 nM; at NaV1.5, 3200 nM.

For the origin of these results see patent US10899732B2, “Substituted benzamides useful as sodium channel blockers” (GENENTECH, INC., priority 2015, dated 2021).
